≈ marks a conversion by molar mass, not a printed value.
Key:
[1] = Solubility of the compound in phosphate buffered saline by UV-spectroscopic analysis; format: physicochemical
[2] = tested on: HepG2; test: Cytotoxicity against human HepG2 cells after 72 hrs by MTT assay; format: functional, cell-based; conditions: HepG2, 72 h
[3] = tested on: MCF7; test: Cytotoxicity against human MCF7 cells after 72 hrs by MTT assay; format: functional, cell-based; conditions: MCF7, 72 h
[4] = Prodrug conversion in Sprague-Dawley rat plasma assessed as 10-hydroxycamptothecin formation at 4 mg measured within 2 hrs by UV-based RP-HPLC analysis; format: ADME, cell-free
[5] = Prodrug conversion in Sprague-Dawley rat plasma assessed as SN38 formation at 4 mg measured within 2 hrs by UV-based RP-HPLC analysis; format: ADME, cell-free
[6] = phosphate buffered saline, read-out: solubility

Row | SMILES | solubility [1, 6] [mg/mL] | IC50 [2] [µM] | IC50 [3] [µM] | Drug metabolism [4] | Drug metabolism [5] | solubility ([1]; buffer) [mg/mL]
1 | CC[C@@]1(O)C(=O)OCc2c1cc1n(c2=O)Cc2cc3cc(OCCOCCOCCOCCOCCO)ccc3nc2-1 | 6.34 (≈ 10.8 mM) | 70.3 | 95.8 |  |  | 
2 | CC[C@@]1(OC(=O)OCCOCCOCCOCCOCCOCCOCCOCCOCCOCCOCCOCCOCCOCCOC)C(=O)OCc2c1cc1n(c2=O)Cc2cc3ccccc3nc2-1 | 94.1 (≈ 91.9 mM) | 5.15 | 7.43 |  |  | 
3 | CC[C@@]1(OC(=O)OCCOCCOCCOCCOCCOCCOCCOCCOC)C(=O)OCc2c1cc1n(c2=O)Cc2cc3ccccc3nc2-1 | 0.38 (≈ 0.501 mM) | 5.47 | 7.42 |  |  | 
4 | CC[C@@]1(OC(=O)OCCOCCOCCOCCOCCOCCOCCOCCOCCOCCOCCOC)C(=O)OCc2c1cc1n(c2=O)Cc2cc3ccccc3nc2-1 | 79.5 (≈ 89.2 mM) | 4.78 | 8.48 |  |  | 
5 | CC[C@@]1(O)C(=O)OCc2c1cc1n(c2=O)Cc2cc3cc(OCCOCCOCCOCCOCCOCCOCCOCCOCCOCCO)ccc3nc2-1 |  | > 100 | > 100 |  |  | 
6 | CC[C@@]1(OC(=O)OCCOCCOCCOCCOCCOCCOCCOCCOCCOCCOCCOCCOCCOCCOCCOC)C(=O)OCc2c1cc1n(c2=O)Cc2cc3ccccc3nc2-1 | 114 (≈ 106 mM) | 7.07 | 8.53 |  |  | 
7 | CC[C@@]1(OC(=O)OCCOCCOCCOCCOCCOCCOCCOCCOCCOCCOC)C(=O)OCc2c1cc1n(c2=O)Cc2cc3ccccc3nc2-1 | 0.52 (≈ 0.614 mM) | 4.48 | 10.3 |  |  | 
8 | CC[C@@]1(O)C(=O)OCc2c1cc1n(c2=O)Cc2cc3cc(OCCOCCOCCOCCOCCOCCOCCO)ccc3nc2-1 | 73.3 (≈ 109 mM) | 62.4 | > 100 |  |  | 
9 | CC[C@@]1(O)C(=O)OCc2c1cc1n(c2=O)Cc2cc3cc(OC(=O)OCCOCCOCCOCCOCCOCCOCCOCCOCCOCCOCCOCCOCCOCCOC)ccc3nc2-1 |  | 1.79 | 5.61 |  |  | 
10 | CCc1c2c(nc3ccc(O)cc13)-c1cc3c(c(=O)n1C2)COC(=O)[C@]3(O)CC [7-ETHYL-10-HYDROXYCAMPTOTHECIN] | 0.00087 (≈ 0.00222 mM) | 0.48 | 1.25 |  |  | 
11 | CCc1c2c(nc3ccc(OC(=O)OCCOCCOCCOCCOCCOCCOCCOCCOCCOCCOCCOCCOCCOCCOCCOC)cc13)-c1cc3c(c(=O)n1C2)COC(=O)[C@]3(O)CC |  | 2.31 | 4.72 | Metabolite_Detected | Metabolite_Detected | 
12 | CCc1c2c(nc3ccc(OC(=O)OCCOCCOCCOCCOCCOCCOCCOCCOCCOCCOCCOCCOCCOCCOCCOCCOCCOCCOCCOCCOC)cc13)-c1cc3c(c(=O)n1C2)COC(=O)[C@]3(O)CC |  | 1.98 | 3.08 |  |  | 
13 | CC[C@@]1(O)C(=O)OCc2c1cc1n(c2=O)Cc2cc3cc(OCCOCCOCCOCCOCCOCCO)ccc3nc2-1 | 11 (≈ 17.4 mM) | 50 | > 100 |  |  | 
14 | CC[C@@]1(O)C(=O)OCc2c1cc1n(c2=O)Cc2cc3cc(OCCOCCOCCOCCO)ccc3nc2-1 | 0.95 (≈ 1.76 mM) | 41.8 | 74.6 |  |  | 
15 | CC[C@@]1(O)C(=O)OCc2c1cc1n(c2=O)Cc2cc3cc(O)ccc3nc2-1 [HYDROXYCAMPTOTHECIN] |  | 1.47 | 3.58 |  |  | 0.00094 (≈ 0.00258 mM)
16 | CC[C@@]1(O)C(=O)OCc2c1cc1n(c2=O)Cc2cc3cc(OCCOCCOCCOCCOCCOCCOCCOCCO)ccc3nc2-1 | 249 (≈ 347 mM) | > 100 | > 100 |  |  | 
17 | CC[C@@]1(OC(=O)OCCOCCOCCOCCOCCOCCOCCOCCOCCOCCOCCOCCOCCOCCOCCOCCOCCOCCOCCOC)C(=O)OCc2c1cc1n(c2=O)Cc2cc3ccccc3nc2-1 | 143 (≈ 115 mM) | 3.61 | 7.43 |  |  | 

Row | SMILES | solubility [1, 6] [mg/mL] | IC50 [2] [µM] | IC50 [3] [µM] | Drug metabolism [4] | Drug metabolism [5] | solubility ([1]; buffer) [mg/mL]
18 | CC[C@@]1(OC(=O)OCCOCCOCCOCCOCCOCCOCCOCCOCCOCCOCCOCCOCCOCCOCCOCCOCCOCCOCCOCCOC)C(=O)OCc2c1cc1n(c2=O)Cc2cc3ccccc3nc2-1 | 183 (≈ 142 mM) | 6.87 | 8.09 |  |  | 
19 | CC[C@@]1(O)C(=O)OCc2c1cc1n(c2=O)Cc2cc3cc(OC(=O)OCCOCCOCCOCCOCCOCCOCCOCCOCCOCCOCCOCCOC)ccc3nc2-1 |  | 2.21 | 2.85 | Metabolite_Detected | Metabolite_Detected | 
20 | CC[C@@]1(O)C(=O)OCc2c1cc1n(c2=O)Cc2cc3cc(OCCOCCOCCOCCOCCOCCOCCOCCOCCOCCOCCOCCO)ccc3nc2-1 |  | > 100 | > 100 |  |  | 
21 | CC[C@@]1(O)C(=O)OCc2c1cc1n(c2=O)Cc2cc3cc(OC(=O)OCCOCCOCCOCCOCCOCCOCCOCCOCCOCCOCCOCCOCCOCCOCCOCCOC)ccc3nc2-1 |  | 2.75 | 6.16 |  |  | 
22 | CC[C@@]1(O)C(=O)OCc2c1cc1n(c2=O)Cc2cc3cc(OC(=O)OCCOCCOCCOCCOCCOCCOCCOCCOCCOCCOCCOCCOCCOCCOCCOCCOCCOCCOCCOC)ccc3nc2-1 |  | 2.2 | 6.09 |  |  | 
23 | CC[C@@]1(O)C(=O)OCc2c1cc1n(c2=O)Cc2cc3cc(OC(=O)OCCOCCOCCOCCOCCOCCOCCOCCOCCOCCOCCOCCOCCOCCOCCOCCOCCOCCOCCOCCOCCOCCOCCOCCOC)ccc3nc2-1 |  | 2.69 | 6.76 |  |  | 
24 | CC[C@@]1(O)C(=O)OCc2c1cc1n(c2=O)Cc2cc3cc(OC(=O)OCCOCCOCCOCCOCCOCCOCCOCCOCCOCCOCCOCCOCCOCCOCCOC)ccc3nc2-1 |  | 1.71 | 4.47 |  |  | 
25 | CC[C@@]1(O)C(=O)OCc2c1cc1n(c2=O)Cc2cc3cc(OC(=O)OCCOCCOCCOCCOCCOCCOCCOCCOCCOCCOCCOCCOCCOCCOCCOCCOCCOCCOCCOCCOC)ccc3nc2-1 |  | 3.62 | 6.88 |  |  | 
26 | CC[C@@]1(OC(=O)OCCOCCOCCOCCOCCOCCOCCOCCOCCOCCOCCOCCOC)C(=O)OCc2c1cc1n(c2=O)Cc2cc3ccccc3nc2-1 | 82.8 (≈ 88.6 mM) | 5.97 | 3.36 |  |  | 
27 | CC[C@@]1(O)C(=O)OCc2c1cc1n(c2=O)Cc2cc3cc(OCCOCCOCCOCCOCCOCCOCCOCCOCCOCCOCCO)ccc3nc2-1 |  | > 100 | > 100 |  |  | 
28 | CC[C@@]1(O)C(=O)OCc2c1cc1n(c2=O)Cc2cc3ccccc3nc2-1 [CAMPTOTHECIN] | 0.00069 (≈ 0.00198 mM) | 0.66 | 0.68 |  |  | 
29 | CC[C@@]1(OC(=O)OCCOCCOCCOCCOCCOCCOCCOCCOCCOCCOCCOCCOCCOCCOCCOCCOC)C(=O)OCc2c1cc1n(c2=O)Cc2cc3ccccc3nc2-1 | 136 (≈ 122 mM) | 4.72 | 6.17 |  |  | 
30 | CC[C@@]1(O)C(=O)OCc2c1cc1n(c2=O)Cc2cc3cc(OC(=O)OCCOCCOCCOCCOCCOCCOCCOCCOCCOCCOC)ccc3nc2-1 | 142 (≈ 165 mM) | 2.08 | 5.44 |  |  | 
31 | CC[C@@]1(O)C(=O)OCc2c1cc1n(c2=O)Cc2cc3cc(OC(=O)OCCOCCOCCOCCOCCOCCOCCOCCOCCOCCOCCOC)ccc3nc2-1 |  | 2.51 | 4.64 |  |  | 
32 | CC[C@@]1(OC(=O)OCCOCCOCCOCCOCCOCCOCCOCCOCCOCCOCCOCCOCCOCCOCCOCCOCCOCCOCCOCCOCCOCCOCCOCCOC)C(=O)OCc2c1cc1n(c2=O)Cc2cc3ccccc3nc2-1 | 272 (≈ 186 mM) | 6.17 | 8.62 |  |  | 
33 | CC[C@@]1(O)C(=O)OCc2c1cc1n(c2=O)Cc2cc3cc(OC(=O)OCCOCCOCCOCCOCCOCCOCCOCCOC)ccc3nc2-1 | 85.1 (≈ 110 mM) | 3.06 | 5.39 |  |  | 
34 | CC[C@@]1(O)C(=O)OCc2c1cc1n(c2=O)Cc2cc3cc(OCCOCCOCCOCCOCCOCCOCCOCCOCCO)ccc3nc2-1 |  | > 100 | > 100 |  |  | 
